Target: T1, mGlyT-1b (Mus musculus, UniProt P28571)
T1 construct: host or cells: Flp-in CHO cells, stably transfected
T1 sequence (P28571 1-651 isoform P28571-2): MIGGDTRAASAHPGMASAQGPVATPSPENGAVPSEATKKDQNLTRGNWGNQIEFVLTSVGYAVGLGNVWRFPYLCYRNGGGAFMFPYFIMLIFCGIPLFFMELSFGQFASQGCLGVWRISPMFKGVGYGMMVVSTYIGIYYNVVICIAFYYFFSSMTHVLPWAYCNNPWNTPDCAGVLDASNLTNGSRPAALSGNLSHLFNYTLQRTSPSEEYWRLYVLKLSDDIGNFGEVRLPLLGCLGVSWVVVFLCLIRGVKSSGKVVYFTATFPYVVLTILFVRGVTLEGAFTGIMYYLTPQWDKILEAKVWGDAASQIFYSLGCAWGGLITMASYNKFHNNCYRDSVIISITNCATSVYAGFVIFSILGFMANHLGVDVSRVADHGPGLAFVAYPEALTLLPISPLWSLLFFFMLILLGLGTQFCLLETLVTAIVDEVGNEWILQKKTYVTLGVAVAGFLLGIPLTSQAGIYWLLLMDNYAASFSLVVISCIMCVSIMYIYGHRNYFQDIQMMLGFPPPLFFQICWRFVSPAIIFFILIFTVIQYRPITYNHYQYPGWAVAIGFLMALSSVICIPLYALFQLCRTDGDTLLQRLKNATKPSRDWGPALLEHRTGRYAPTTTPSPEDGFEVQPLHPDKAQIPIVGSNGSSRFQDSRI
Experiment: Glycine uptake inhibition assay (mGlyT-1b)
Type: cell-based
Settings: inhibition of [3H]-glycine uptake in Flp-in-CHO cells stably transfected with mGlyT1b cDNA; 20 min at 22° C.
Protocol: DMEM complete medium: Nutrient mixture F-12 (Gibco Life-technologies), fetal bovine serum (FBS) 5%, (Gibco life technologies), Penicillin/Streptomycin 1% (Gibco life technologies), Hygromycin 0.6 mg/ml (Gibco life technologies), Glutamine 1 mM Gibco life technologies)
Uptake buffer (UB): 150 mM NaCl, 10 mM Hepes-Tris, pH 7.4, 1 mM CaCl2, 2.5 mM KCl, 2.5 mM MgSO4, 10 mM (+) D-glucose. Flp-in™—CHO (Invitrogen Cat n° R758-07)cells stably transfected with mGlyT1b cDNA.
Glycine uptake inhibition assay (mGlyT-1b)
On Day 1 mammallian cells, (Flp-in™—CHO), transfected with mGlyT-1b cDNA, were plated at the density of 40,000 cells/well in complete F-12 medium, without hygromycin in 96-well culture plates. On day 2, the medium was aspirated and the cells were washed twice with uptake buffer (UB). The cells were then incubated for 20 min at 22° C. with either (i) no potential competitor, (ii) 10 mM non-radioactive glycine, (iii) a concentration of a potential inhibitor. A range of concentrations of the potential inhibitor was used to generate data for calculating the concentration of inhibitor resulting in 50% of the effect (e.g. IC50, the concentration of the competitor inhibiting glycine uptake of 50%). A solution was then immediately added containing [^3H]-glycine 60 nM (11-16 Ci/mmol) and 25 μM non-radioactive glycine. The plates were incubated with gentle shaking and the reaction was stopped by aspiration of the mixture and washing (three times) with ice-cold UB. The cells were lysed with scintillation liquid, shaken 3 hours and the radioactivity in the cells was counted using a scintillation counter.

Point of comparison: `CC(=O)c1ccc(N2CCN(C(=O)c3cc([N+](=O)[O-])ccc3N3CCCCCC3)CC2)c(F)c1` [Example 28, 1-{4-[4-(2-Azepan-1-yl-5-nitro-benzoyl)-piperazin-1-yl]-3-fluoro-phenyl}-ethanone], IC50 3.3 nM. Against it:
- CC(=O)c1ccc(N2CCN(C(=O)c3cc([N+](=O)[O-])ccc3N3CCC(CO)C3)CC2)c(F)c1 (racemic) [Example 175, 1-(3-Fluoro-4-{4-[2-(3-hydroxymethyl-pyrrolidin-1-yl)-5-nitro-benzoyl]-piperazin-1-yl}-phenyl)-ethanone] — 2.9-fold higher, 9.7 nM
- CC(=O)c1ccc(N2CCN(C(=O)c3cc([N+](=O)[O-])ccc3N3CCOCC3)CC2)c(F)c1 [Example 1, 1-{4-[4-(2-Morpholin-4-yl-5-nitro-benzoyl)-piperazin-1-yl]-3-fluoro-phenyl}-ethanone] — 4.5-fold higher, 15 nM
- CC(=O)c1ccc(N2CCN(C(=O)c3cc([N+](=O)[O-])ccc3NCC3CC3)CC2)c(F)c1 [Example 4, 1-(4-{4-[2-(Cyclopropylmethyl-amino)-5-nitro-benzoyl]-piperazin-1-yl}-3-fluoro-phenyl)-ethanone] — 3.9-fold higher, 13 nM
- CC(=O)c1ccc(N2CCN(C(=O)c3cc([N+](=O)[O-])ccc3NC3CCCCC3)CC2)c(F)c1 [Example 6, 1-{4-[4-(2-Cyclohexylamino-5-nitro-benzoyl)-piperazin-1-yl]-3-fluoro-phenyl}-ethanone] — 3-fold higher, 10 nM
- CCN(CC)c1ccc([N+](=O)[O-])cc1C(=O)N1CCN(c2ccc(C(C)=O)cc2F)CC1 [Example 11, 1-{4-[4-(2-Diethylamino-5-nitro-benzoyl)-piperazin-1-yl]-3-fluoro-phenyl}-ethanone] — 4.5-fold higher, 15 nM
- CC(=O)c1ccc(N2CCN(C(=O)c3cc([N+](=O)[O-])ccc3N3CCCC3)CC2)c(F)c1 [Example 16, 1-{3-Fluoro-4-[4-(5-nitro-2-pyrrolidin-1-yl-benzoyl)-piperazin-1-yl]-phenyl}-ethanone] — 3.6-fold higher, 12 nM
- CC(=O)c1ccc(N2CCN(C(=O)c3cc([N+](=O)[O-])ccc3NC(C)C)CC2)c(F)c1 [Example 18, 1-{3-Fluoro-4-[4-(2-isopropylamino-5-nitro-benzoyl)-piperazin-1-yl]-phenyl}-ethanone] — within 1.5-fold, 2.5 nM
- CC(=O)c1ccc(N2CCN(C(=O)c3cc([N+](=O)[O-])ccc3NCC(C)C)CC2)c(F)c1 [Example 19, 1-{3-Fluoro-4-[4-(2-isobutylamino-5-nitro-benzoyl)-piperazin-1-yl]-phenyl}-ethanone] — within 1.5-fold, 3 nM
- CC(=O)c1ccc(N2CCN(C(=O)c3cc([N+](=O)[O-])ccc3NC3CCC3)CC2)c(F)c1 [Example 20, 1-{4-[4-(2-Cyclobutylamino-5-nitro-benzoyl)-piperazin-1-yl]-3-fluoro-phenyl}-ethanone] — 1.6-fold lower, 2.1 nM
- CC(=O)c1ccc(N2CCN(C(=O)c3cc([N+](=O)[O-])ccc3NC3CCCC3)CC2)c(F)c1 [Example 21, 1-{4-[4-(2-Cyclopentylamino-5-nitro-benzoyl)-piperazin-1-yl]-3-fluoro-phenyl}-ethanone] — within 1.5-fold, 2.3 nM
- CC(=O)c1ccc(N2CCN(C(=O)c3cc([N+](=O)[O-])ccc3N3CCCCC3)CC2)c(F)c1 [Example 27, 1-{3-Fluoro-4-[4-(5-nitro-2-piperidin-1-yl-benzoyl)-piperazin-1-yl]-phenyl}-ethanone] — 2.8-fold lower, 1.2 nM
- CC(=O)c1ccc(N2CCN(C(=O)c3cc([N+](=O)[O-])ccc3N3CCCCC3C)CC2)c(F)c1 (stereo not shown) [Example 35, 1-(3-Fluoro-4-{4-[2-(2-methyl-piperidin-1-yl)-5-nitro-benzoyl]-piperazin-1-yl}-phenyl)-ethanone] — 1.8-fold higher, 6 nM
- CC(=O)c1ccc(N2CCN(C(=O)c3cc([N+](=O)[O-])ccc3N3CCC(C)CC3)CC2)c(F)c1 [Example 36, 1-(3-Fluoro-4-{4-[2-(4-methyl-piperidin-1-yl)-5-nitro-benzoyl]-piperazin-1-yl}-phenyl)-ethanone] — 4.2-fold higher, 14 nM
- CC(=O)c1ccc(N2CCN(C(=O)c3cc([N+](=O)[O-])ccc3N3CCCC(C)C3)CC2)c(F)c1 (stereo not shown) [Example 37, 1-(3-Fluoro-4-{4-[2-(3-methyl-piperidin-1-yl)-5-nitro-benzoyl]-piperazin-1-yl}-phenyl)-ethanone] — 2.1-fold higher, 7 nM
- CC(=O)c1ccc(N2CCN(C(=O)c3cc([N+](=O)[O-])ccc3N3CCCC3C)CC2)c(F)c1 (stereo not shown) [Example 38, 1-(3-Fluoro-4-{4-[2-(2-methyl-pyrrolidin-1-yl)-5-nitro-benzoyl]-piperazin-1-yl}-phenyl)-ethanone] — 2.4-fold higher, 8 nM
- CC(=O)c1ccc(N2CCN(C(=O)c3cc([N+](=O)[O-])ccc3N3CC=CC3)CC2)c(F)c1 [Example 41, 1-(4-{4-[2-(2,5-Dihydro-pyrrol-1-yl)-5-nitro-benzoyl]-piperazin-1-yl}-3-fluoro-phenyl)-ethanone] — 4.2-fold higher, 14 nM
- CC(=O)c1ccc(N2CCN(C(=O)c3cc([N+](=O)[O-])ccc3N3CCSCC3)CC2)c(F)c1 [Example 42, 1-{3-Fluoro-4-[4-(5-nitro-2-thiomorpholin-4-yl-benzoyl)-piperazin-1-yl]-phenyl}-ethanone] — within 1.5-fold, 3.5 nM
- C=CCN(C)c1ccc([N+](=O)[O-])cc1C(=O)N1CCN(c2ccc(C(C)=O)cc2F)CC1 [Example 43, 1-(4-{4-[2-(Allyl-methyl-amino)-5-nitro-benzoyl]-piperazin-1-yl}-3-fluoro-phenyl)-ethanone] — 2.7-fold higher, 9 nM
- CC(=O)c1ccc(N2CCN(C(=O)c3cc([N+](=O)[O-])ccc3N3CCCC(O)C3)CC2)c(F)c1 (stereo not shown) [Example 45, 1-(3-Fluoro-4-{4-[2-(3-hydroxy-piperidin-1-yl)-5-nitro-benzoyl]-piperazin-1-yl}-phenyl)-ethanone] — 5.8-fold higher, 19 nM
- CC(=O)c1ccc(N2CCN(C(=O)c3cc(S(C)(=O)=O)ccc3N3CCCCCC3)CC2)c(F)c1 [Example 76, 1-{4-[4-(2-Azepan-1-yl-5-methanesulfonyl-benzoyl)-piperazin-1-yl]-3-fluoro-phenyl}-ethanone] — 5.8-fold higher, 19 nM
- CC(=O)c1ccc(N2CCN(C(=O)c3cc(S(C)(=O)=O)ccc3N3CCCC3)CC2)c(F)c1 [Example 83, 1-{3-Fluoro-4-[4-(5-methanesulfonyl-2-pyrrolidin-1-yl-benzoyl)-piperazin-1-yl]-phenyl}-ethanone] — 5.8-fold higher, 19 nM
- CNS(=O)(=O)c1ccc(N2CCCC2)c(C(=O)N2CCN(c3ccc(C(F)(F)F)cc3)CC2)c1 [Example 129, N-Methyl-4-pyrrolidin-1-yl-3-[4-(4-trifluoromethyl-phenyl)-piperazine-1-carbonyl]-benzenesulfonamide] — 1.5-fold higher, 5 nM
- CNS(=O)(=O)c1ccc(N2CCOCC2)c(C(=O)N2CCN(c3ccc(C(F)(F)F)cc3)CC2)c1 [Example 131, N-Methyl-4-morpholin-4-yl-3-[4-(4-trifluoromethyl-phenyl)-piperazine-1-carbonyl]-benzenesulfonamide] — 2.4-fold higher, 8 nM
- CNS(=O)(=O)c1ccc(N2CCCC2)c(C(=O)N2CCN(c3ccc(C(C)=O)cc3F)CC2)c1 [Example 133, 3-[4-(4-Acetyl-2-fluoro-phenyl)-piperazine-1-carbonyl]-N-methyl-4-pyrrolidin-1-yl-benzenesulfonamide] — 2.7-fold higher, 9 nM
- CC(=O)c1ccc(N2CCN(C(=O)c3cc([N+](=O)[O-])ccc3NC(C)(C)C)CC2)c(F)c1 [Example 176, 1-{3-Fluoro-4-[4-(2-tert.-butylamino-5-nitro-benzoyl)-piperazin-1-yl]-phenyl}-ethanone] — 6.1-fold higher, 20 nM
- N#Cc1cc(C(F)(F)F)ccc1N1CCN(C(=O)c2cc([N+](=O)[O-])ccc2N2CCOCC2)CC1 [Example 186, 2-[4-(2-Morpholin-4-yl-5-nitro-benzoyl)-piperazin-1-yl]-5-trifluoromethyl-benzonitrile] — 4.5-fold higher, 15 nM
- CS(=O)(=O)c1ccc(N2CCCCC2)c(C(=O)N2CCN(c3ccc(C#N)cc3F)CC2)c1 [Example 216, 3-Fluoro-4-[4-(5-methanesulfonyl-2-piperidin-1-yl-benzoyl)-piperazin-1-yl]-benzonitrile] — 3.6-fold higher, 12 nM
